{
  "source": "ChEMBL document CHEMBL3351879",
  "about": "“Isolation, structure elucidation, relative LC-MS response, and in vitro toxicity of azaspiracids from the dinoflagellate Azadinium spinosum” (J Nat Prod, 2014)",
  "assay_type_in_all_cases": "functional, cell-based",
  "key": {"[1]": {"experiment": "Cytotoxicity against human Jurkat E6-1 cells assessed as cell viability after 48 hrs by MTS assay"}, "[2]": {"experiment": "Cytotoxicity against human Jurkat E6-1 cells assessed as cell viability after 24 hrs by MTS assay"}, "[3]": {"experiment": "Cytotoxicity against human Jurkat E6-1 cells assessed as cell viability after 72 hrs by MTS assay"}},
  "data": [
    {"smiles": "C=C(C[C@@]12C[C@@H](C)C[C@@H](O1)[C@H]1O[C@]3(C[C@H]1O2)NC[C@H](C)C[C@@H]3C)[C@H]1O[C@@](O)([C@H](O)[C@@H]2CC[C@@H](C/C=C/CC/C=C/CCC(=O)O)O2)[C@H](C)C[C@@H]1C", "values": [
      {"measurement": "EC50", "setting": "[1]", "result": 5.9, "unit": "nM"},
      {"measurement": "EC50", "setting": "[2]", "result": 3.3, "unit": "nM"},
      {"measurement": "EC50", "setting": "[3]", "result": 6.4, "unit": "nM"}
    ]},
    {"smiles": "C=C(C[C@@]12C[C@@H](C)C[C@@H](O1)[C@H]1O[C@]3(C[C@H]1O2)NC[C@H](C)C[C@@H]3C)[C@H]1O[C@@](O)([C@H](O)[C@@H]2C[C@H]3O[C@@]4(CC[C@]5(CC=C[C@@H](CCC(=O)O)O5)O4)[C@H](C)C[C@H]3O2)[C@H](C)C[C@@H]1C", "values": [
      {"measurement": "EC50", "setting": "[1]", "result": 0.18, "unit": "nM"},
      {"measurement": "EC50", "setting": "[2]", "result": 0.23, "unit": "nM"},
      {"measurement": "EC50", "setting": "[3]", "result": 0.2, "unit": "nM"}
    ]},
    {"smiles": "C=C(C[C@]12C[C@@H](C)C[C@H](O1)[C@H]1O[C@]3(C[C@H]1O2)NC[C@H](C)C[C@@H]3C)[C@H]1O[C@@](O)([C@H](O)[C@@H]2C[C@H]3O[C@@]4(CC[C@]5(CC=C[C@@H](/C=C/CCC(=O)O)O5)O4)[C@H](C)C[C@H]3O2)[C@H](C)C[C@@H]1C", "values": [
      {"measurement": "EC50", "setting": "[1]", "result": 1.1, "unit": "nM"},
      {"measurement": "EC50", "setting": "[2]", "result": 0.96, "unit": "nM"},
      {"measurement": "EC50", "setting": "[3]", "result": 1.3, "unit": "nM"}
    ]}
  ]
}
